{"source": "patent US20110039721A1", "about": "“METHOD FOR PREDICTION ABOUT CARCINOGENICITY OF SUBSTANCE IN RODENT” (Chemicals Evaluation and Research Institute, priority 2007, published 2011)", "key": {"[1]": {"tested_on": "mRNA expressed from the genes (A) to (D) in rat liver", "experiment": "Behavior of genes (mRNA expression level, oligo-DNA microarray) in rat liver after 28-day oral administration", "format": "in vivo", "conditions": "rat, in vivo", "procedure,_shortened": "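Rat liver RNA after 28 days of daily gavage dosing (male F344, 5 weeks old, four per group). A change reaching 1.5-fold, or 1/1.5, against solvent control scores as significant; opposite direction versus another carcinogen scores as not significant.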"}, "rodent": {"tested_on": "rodent", "conditions": "in vivo; cited from earlier work"}, "liver": {"tested_on": "liver", "conditions": "in vivo; cited from earlier work"}}}
{"smiles": "Cl[C@H]1[C@H](Cl)[C@H](Cl)[C@@H](Cl)[C@H](Cl)[C@H]1Cl", "note": "[TS021, α-Hexachlorocyclohexane]", "values": [{"measurement": "Behavior of gene caused by administration of chemical substance, Gene No. 154", "setting": "[1]", "result": "−"}, {"measurement": "Behavior of gene caused by administration of chemical substance, Gene No. 533", "setting": "[1]", "result": "+"}, {"measurement": "Behavior of gene caused by administration of chemical substance, Gene No. 725", "setting": "[1]", "result": "−"}, {"measurement": "Behavior of gene caused by administration of chemical substance, Gene No. 813", "setting": "[1]", "result": "+"}, {"measurement": "Behavior of gene caused by administration of chemical substance, Gene No. 893", "setting": "[1]", "result": "−"}, {"measurement": "Behavior of gene caused by administration of chemical substance, Gene No. 1119", "setting": "[1]", "result": "−"}, {"measurement": "Behavior of gene caused by administration of chemical substance, Gene No. 1131", "setting": "[1]", "result": "−"}, {"measurement": "Behavior of gene caused by administration of chemical substance, Gene No. 1163", "setting": "[1]", "result": "−"}, {"measurement": "Behavior of gene caused by administration of chemical substance, Gene No. 1334", "setting": "[1]", "result": "−"}, {"measurement": "Behavior of gene caused by administration of chemical substance, Gene No. 1494", "setting": "[1]", "result": "+"}, {"measurement": "Behavior of gene caused by administration of chemical substance, Gene No. 1562", "setting": "[1]", "result": "−"}, {"measurement": "Behavior of gene caused by administration of chemical substance, Gene No. 1741", "setting": "[1]", "result": "+"}, {"measurement": "Behavior of gene caused by administration of chemical substance, Gene No. 1993", "setting": "[1]", "result": "−"}, {"measurement": "Behavior of gene caused by administration of chemical substance, Gene No. 2026", "setting": "[1]", "result": "−"}, {"measurement": "Behavior of gene caused by administration of chemical substance, Gene No. 2045", "setting": "[1]", "result": "+"}, {"measurement": "Behavior of gene caused by administration of chemical substance, Gene No. 2203", "setting": "[1]", "result": "+"}, {"measurement": "Behavior of gene caused by administration of chemical substance, Gene No. 2494", "setting": "[1]", "result": "−"}, {"measurement": "Behavior of gene caused by administration of chemical substance, Gene No. 2546", "setting": "[1]", "result": "−"}, {"measurement": "Behavior of gene caused by administration of chemical substance, Gene No. 3776", "setting": "[1]", "result": "−"}, {"measurement": "Behavior of gene caused by administration of chemical substance, Gene No. 3929", "setting": "[1]", "result": "−"}, {"measurement": "Behavior of gene caused by administration of chemical substance, Gene No. 4095", "setting": "[1]", "result": "+"}, {"measurement": "Behavior of gene caused by administration of chemical substance, Gene No. 4218", "setting": "[1]", "result": "−"}, {"measurement": "Behavior of gene caused by administration of chemical substance, Gene No. 4846", "setting": "[1]", "result": "−"}, {"measurement": "Behavior of gene caused by administration of chemical substance, Gene No. 4973", "setting": "[1]", "result": "+"}, {"measurement": "Behavior of gene caused by administration of chemical substance, Gene No. 5600", "setting": "[1]", "result": "−"}, {"measurement": "Behavior of gene caused by administration of chemical substance, Gene No. 5634", "setting": "[1]", "result": "+"}, {"measurement": "Behavior of gene caused by administration of chemical substance, Gene No. 5726", "setting": "[1]", "result": "−"}, {"measurement": "Behavior of gene caused by administration of chemical substance, Gene No. 5878", "setting": "[1]", "result": "−"}, {"measurement": "Behavior of gene caused by administration of chemical substance, Gene No. 6026", "setting": "[1]", "result": "−"}, {"measurement": "Behavior of gene caused by administration of chemical substance, Gene No. 6182", "setting": "[1]", "result": "+"}, {"measurement": "Behavior of gene caused by administration of chemical substance, Gene No. 6303", "setting": "[1]", "result": "+"}, {"measurement": "Behavior of gene caused by administration of chemical substance, Gene No. 6620", "setting": "[1]", "result": "−"}, {"measurement": "Behavior of gene caused by administration of chemical substance, Gene No. 6742", "setting": "[1]", "result": "+"}, {"measurement": "Carcinogenicity", "setting": "rodent", "result": "C+"}, {"measurement": "Liver carcinogenicity", "setting": "liver", "result": "Cr+"}]}
